Like-named read-outs stand apart in the source and are kept apart here.
Columns and labels:
[1] = system: MCAO rats; test: Combined Middle Cerebral and Ipsilateral Common Carotid Occlusion in the Rat (MCAO): collateral zone and hemispheric infarct; format: in vivo, Adult male Fisher (F-344) rats; settings: for response vs control in vivo at 3 mg/kg: 3 mg/kg IP; for response vs control in vivo at 15 mg/kg: 15 mg/kg IP
Description: Occlusion of the proximal part of the middle cerebral artery (MCA) is a common cause of stroke in man and can be accomplished surgically in experimental animals. […] We have combined distal MCA occlusion with ipsilateral common carotid ligation in an attempt to produce reproducible,focal cerebral ischemic infarcts.
The skin on the ventral side of the neck and the left temporal-parietal region was shaved. An incision was made in the neck and the left common carotid artery was doubly ligated and cut between the sutures. The incision was closed with 4-0 silk. Another incision was then made behind the left eye and the skin was held back with retractors. The exposed temporalis muscle was electrocauterized (Jarit Bipolar Coagulator) and partially removed. The upper part of the lower jaw bone was also removed. Deep surgery was performed with the aid of a Zeiss OPMI 99 surgical microscope. A 1 to 2-mm diameter craniotomy was made about 1 mm anterior to where the rostral end of the zygoma fuses to the squamosal bone. To prevent the drill from going through the dura, the burr hole was not drilled completely through the skull. Bone remaining after drilling was removed with forceps. The dura was pierced and reflected with a fine probe.
At this point the rat was injected with 0.3 ml of 2% Evans blue dye in saline via the tail vein. Evans blue binds to serum albumin and will not pass the blood-brain barrier unless damage has occurred, such as damage induced by ischemia. A small hook was then positioned under the MCA and the MCA was lifted away from the cortex. A jeweler-type bipolar forceps was introduced and the MCA was electrocauterized and separated. Gelfoam was put over the craniotomy and the wound was closed with 4-0 silk. The rats were then taken off the halothane and were allowed to wake up. Total anesthesia time was typically 30 minutes.
On Day 2 following MCA occlusion, the rats were anesthetized with ketamine (150 mg/kg, IP) and sacrificed. Cerebral tissue fixation was initiated by perfusion of 10% neutralized, buffered formalin for five minutes. Brains were removed and stored in the fixative until analysis.
For evaluation of the extent of cerebral ischemic injury, the brains were cut coronally in three different locations. The first section was at the level where the MCA was ligated. The other two sections were 2 mm anterior and 2 mm posterior to the first. Using an ausJena Citoval microscope with a drawing tube and an Apple II plus computer with a Houston Instrument digitizing pad, a software routine to measure the area of the ischemic damage as indicated by the extent of Evans blue tissue extravasation was employed. The software package was purchased from R&M Biometrics (Nashville, Tenn.) and is titled Bioquant II. From the lesion areas (mm^2) obtained from the Bioquant II program, we estimated the hemispheric extent (mm^3) of ischemic damage between the anterior and posterior sections by computing and adding the volume of two truncated cones.
The Bioquant II image analysis system was used to quantitate ischemic injury as it was identified by Evans blue extravasation.

[2] = system: rats; test: Anesthesia in rats after dosing (impaired consciousness, lack of righting reflex; duration); format: in vivo, Adult male Fisher (F-344) rats; settings: time from administration to regaining consciousness
Description: The duration of anesthesia is that time elapsed between administration of the test substance and the test animal regaining consciousness.

[3] = 10 mg/kg IP, 30 min and 24 h after occlusion, historical controls, read-out: Collateral Zone Infarct (% of Control)
[4] = 10 mg/kg IP, 30 min and 24 h after occlusion, historical controls, read-out: Hemispheric Infarct (% of Control)
[5] = 30 mg/kg IP, 30 min and 24 h after occlusion, historical controls, read-out: Collateral Zone Infarct (% of Control)
[6] = 30 mg/kg IP, 30 min and 24 h after occlusion, historical controls, read-out: Hemispheric Infarct (% of Control)
[7] = 30 min and 24 h after occlusion, historical controls, read-out: Collateral Zone Infarct (% of Control)
[8] = 30 min and 24 h after occlusion, historical controls, read-out: Hemispheric Infarct (% of Control)
[9] = ip, read-out: Collateral Zone Infarct (% of Control)
[10] = ip, read-out: Hemispheric Infarct (% of Control)

CSc1ccc2nc(N)sc2c1 [Compound 2, 2-amino-6-methylthiobenzothiazole]
response vs control in vivo at 10 mg/kg [1, 3]: 72%
response vs control in vivo at 10 mg/kg [1, 4]: 88%
response vs control in vivo at 30 mg/kg [1, 5]: 100%
response vs control in vivo at 30 mg/kg [1, 6]: 106%

CS(=O)(=O)c1ccc2nc(N)sc2c1 [Compound 4, 2-amino-6-methylsulphonylbenzothiazole]
response vs control in vivo at 10 mg/kg [1, 3]: 77%
response vs control in vivo at 10 mg/kg [1, 4]: 83%
response vs control in vivo at 30 mg/kg [1, 5]: 58%
response vs control in vivo at 30 mg/kg [1, 6]: 86%

CCOc1ccc2nc(N)sc2c1 [Compound 6, 2-amino-6-ethoxybenzothiazole]
response vs control in vivo at 10 mg/kg [1, 3]: 94%
response vs control in vivo at 10 mg/kg [1, 4]: 115%
response vs control in vivo at 30 mg/kg [1, 5]: 16%
response vs control in vivo at 30 mg/kg [1, 6]: 59%

Nc1nc2ccc(Br)cc2s1 [Compound 7, 2-amino-6-bromobenzothiazole]
Anesthesia (duration) ([2]; 30 mg/kg IP): > 5 h
response vs control in vivo at 10 mg/kg [1, 3]: 69%
response vs control in vivo at 10 mg/kg [1, 4]: 88%
response vs control in vivo at 30 mg/kg [1, 5]: 59%
response vs control in vivo at 30 mg/kg [1, 6]: 68%

Nc1nc2ccc([N+](=O)[O-])cc2s1 [Compound 8, 2-amino-6-nitrobenzothiazole]
Anesthesia (duration) ([2]; 30 mg/kg IP): 4 h
response vs control in vivo at 10 mg/kg [1, 3]: 92%
response vs control in vivo at 10 mg/kg [1, 4]: 93%
response vs control in vivo at 30 mg/kg [1, 5]: 24%
response vs control in vivo at 30 mg/kg [1, 6]: 62%

Nc1nc2ccc(OC(F)(F)F)cc2s1 [Compound 9, 2-amino-6-trifluoromethoxybenzothiazole]
Anesthesia (duration) ([2]; 30 mg/kg IP): 1 to 2 h
response vs control in vivo at 3 mg/kg [1, 7]: 117%
response vs control in vivo at 3 mg/kg [1, 8]: 99%
response vs control in vivo at 10 mg/kg [1, 3]: 43%
response vs control in vivo at 10 mg/kg [1, 4]: 66%
response vs control in vivo at 15 mg/kg [1, 7]: 42%
response vs control in vivo at 15 mg/kg [1, 8]: 82%
response vs control in vivo at 30 mg/kg [1, 5]: 0%
response vs control in vivo at 30 mg/kg [1, 6]: 44%

Nc1nc2ccc(C(F)(F)F)cc2s1 [Compound 10, 2-amino-6-trifluoromethylbenzothiazole]
response vs control in vivo at 3 mg/kg [1, 7]: 156%
response vs control in vivo at 3 mg/kg [1, 8]: 131%
response vs control in vivo at 10 mg/kg [1, 3]: 51%
response vs control in vivo at 10 mg/kg [1, 4]: 53%

Cc1cc(C)c2nc(N)sc2c1 [Compound 12, 2-amino-4,6-dimethylbenzothiazole]
response vs control in vivo at 10 mg/kg [1, 3]: 91%
response vs control in vivo at 10 mg/kg [1, 4]: 79%
response vs control in vivo at 30 mg/kg [1, 5]: 68%
response vs control in vivo at 30 mg/kg [1, 6]: 76%

COc1cccc2sc(N)nc12 [Compound 13, 2-amino-4-methoxybenzothiazole]
Anesthesia (duration) ([2]; 10 mg/kg IP): > 5 h
response vs control in vivo at 3 mg/kg [1, 7]: 85%
response vs control in vivo at 3 mg/kg [1, 8]: 90%
response vs control in vivo at 10 mg/kg [1, 3]: 115%
response vs control in vivo at 10 mg/kg [1, 4]: 121%

Cc1cccc2sc(N)nc12 [Compound 14, 2-amino-4-methylbenzothiazole]
response vs control in vivo at 10 mg/kg [1, 3]: 69%
response vs control in vivo at 10 mg/kg [1, 4]: 72%
response vs control in vivo at 30 mg/kg [1, 5]: 40%
response vs control in vivo at 30 mg/kg [1, 6]: 54%

Nc1nc2c(C(F)(F)F)cccc2s1 [Compound 16, 2-amino-4-trifluoromethylbenzothiazole]
response vs control in vivo at 10 mg/kg [1, 3]: 63%
response vs control in vivo at 10 mg/kg [1, 4]: 99%
response vs control in vivo at 30 mg/kg [1, 5]: 15%
response vs control in vivo at 30 mg/kg [1, 6]: 61%

Nc1nc2c(F)cc(F)cc2s1 [Compound 17, 2-amino-4,6-difluorobenzothiazole]
response vs control in vivo at 10 mg/kg [1, 3]: 137%
response vs control in vivo at 10 mg/kg [1, 4]: 139%
response vs control in vivo at 30 mg/kg [1, 5]: 105%
response vs control in vivo at 30 mg/kg [1, 6]: 115%

COc1ccc2sc(N)nc2c1 [Compound 18, 2-amino-5-methoxybenzothiazole]
response vs control in vivo at 10 mg/kg [1, 9]: 124%
response vs control in vivo at 30 mg/kg [1, 9]: 54%
response vs control in vivo at 10 mg/kg [1, 10]: 117%
response vs control in vivo at 30 mg/kg [1, 10]: 82%

Nc1nc2cc(C(F)(F)F)ccc2s1 [Compound 19, 2-amino-5-trifluoromethylbenzothiazole]
response vs control in vivo at 10 mg/kg [1, 3]: 48%
response vs control in vivo at 10 mg/kg [1, 4]: 63%
response vs control in vivo at 30 mg/kg [1, 5]: 53%
response vs control in vivo at 30 mg/kg [1, 6]: 79%

Nc1nc2c(ccc3ccccc32)s1 [Compound 20, 2-amino-naptho[1,2-d]thiazole]
response vs control in vivo at 10 mg/kg [1, 3]: 63%
response vs control in vivo at 10 mg/kg [1, 4]: 84%
response vs control in vivo at 30 mg/kg [1, 5]: 81%
response vs control in vivo at 30 mg/kg [1, 6]: 92%

CCNc1nc2ccccc2s1 [Compound 21, 2-ethylaminobenzothiazole]
response vs control in vivo at 10 mg/kg [1, 3]: 62%
response vs control in vivo at 10 mg/kg [1, 4]: 71%
response vs control in vivo at 30 mg/kg [1, 5]: 116%
response vs control in vivo at 30 mg/kg [1, 6]: 89%

c1ccc(CNc2nc3ccccc3s2)cc1 [Compound 22, N-benzyl-2-benzothiazolamine]
response vs control in vivo at 10 mg/kg [1, 3]: 56%
response vs control in vivo at 10 mg/kg [1, 4]: 76%
response vs control in vivo at 30 mg/kg [1, 5]: 98%
response vs control in vivo at 30 mg/kg [1, 6]: 89%

CN1CCCC1CCNc1nc2ccccc2s1 (centres unmarked) [Compound 23, 2-[[2-(1-methyl-2-pyrrolidinyl)ethyl]amino]-benzothiazole]
response vs control in vivo at 10 mg/kg [1, 3]: 66%
response vs control in vivo at 10 mg/kg [1, 4]: 84%
response vs control in vivo at 30 mg/kg [1, 5]: 18%
response vs control in vivo at 30 mg/kg [1, 6]: 72%
